Patent US12240844B2 (Voronoi, Inc., priority 2019, dated 2025)

What was measured:
[1] = target: T1, human GST-CLK1 (129-end) (Homo sapiens, UniProt P49759); experiment: GST-CLK1 enzyme inhibition, ADP-Glo kinase assay; type: biochemical; conditions: ATP 10 uM
T1 construct: purified human GST-CLK1 (129-end, Signalchem) enzyme; GST; purchased Signalchem
Summary of the method: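 ADP formation was read by ADP-Glo luminescence after 1 h at 25° C with 3 ng human GST-CLK1 (129-end), substrate and 10 uM ATP in Tris pH 7.4 buffer containing MgCl2, BSA and DTT. Inhibition relative to untreated solvent control gave IC50 (nM), run in triplicate.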

[2] = target: T2, LRRK2, LRRK2 (G2019S), DYRK1, CLK1 and TTK kinases (Homo sapiens, UniProt Q13627); experiment: Enzyme IC50 by Kinase HotSpot service (Reaction Biology Corporation), values marked with *; type: biochemical; conditions: DYRK1, ATP 10 uM
T2 construct: other: DYRK1; Kinase HotSpot service (Reaction Biology), ATP 10 uM
Experimental: Meanwhile, the enzyme IC50 measurement for some compounds was performed using Kinase HotSpot service (Reaction Biology Corporation); during the test, the ATP concentration was 10 uM, where all were conducted under the same condition; and the concentration of the compound was measured by giving a 3-fold concentration gradient with the highest concentration of […], where the values measured using Kinase HotSpot service (Reaction Biology Corporation) were marked with “*”.
All experimental methods were performed as provided in Kinase HotSpot Customer Protocol (http://www.reactionbiology.com//Kinase_Assay_Protocol).
In the table below, the following designations were used for the evaluation of enzyme inhibitory ability.

[3] = test system: MDA-MB-231 cell line; experiment: MDA-MB-231 cancer cell proliferation inhibition (Cell Titer-Glo); type: cell-based; conditions: Homo sapiens, MDA-MB-231 triple-negative breast cancer cell line, 72 hours
Summary of the method: (§1)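 GI50 comes from CellTiter-Glo luminescence, read 10 min after reagent addition at RT, following 72 h compound treatment. Eleven concentrations were used (⅓ steps, highest 10 μM final) on 2000 cells/well. MDA-MB-231 and MDA-MB-468 were grown in DMEM, SHP-77 in RPMI.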

[4] = test system: human DYRK1A and Tau; experiment: Tau phosphorylation inhibition, ClariCELL Kinase Cell-Based Assay (Carnabio)
Summary of the method: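 HEK293 cells transiently expressing human DYRK1A and Tau were exposed to compound, then lysed. Released Tau was captured on plate and its phosphorylation quantified by ELISA with a phospho-Tau-specific antibody.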

[5] = target: LRRK2 (Homo sapiens, UniProt Q5S007); experiment: LRRK2 enzyme inhibition, ADP-Glo kinase assay; type: biochemical; set-up: purchased Invitrogen PR8604B
Summary of the method: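 ADP-Glo luminescence read after 2 h at 25° C, 10 μM ATP, 25 ng purified human LRRK2 and […] substrate in Tris-HCl pH7.4 buffer with MgCl2, BSA, DTT. Twelve final concentrations, 50 μM down to 0.000001024 μM; IC50 (nM) from inhibition relative to untreated solvent control.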

[6] = test system: SHP-77; experiment: SHP-77 cancer cell proliferation inhibition (Cell Titer-Glo); type: cell-based; conditions: Homo sapiens, SHP77, SHP-77 small cell lung cancer cell line, 72 hours
Summary of the method: as §1

[7] = target: LRRK2 (G2019S) (Homo sapiens, UniProt Q5S007, G2019S); experiment: LRRK2 G2019S enzyme inhibition, ADP-Glo kinase assay; type: biochemical; set-up: purchased SignalChem L10-12GG
Summary of the method: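 Activity read as ADP-Glo luminescence, normalized to untreated solvent control, with IC50 (nM) fitted over 12 final compound levels (top 50 μM). Reaction: 2 h, 25° C, human LRRK2 G2019S 16 ng, ATP 25 μM, substrate 0.2 μg, in Tris-HCl pH 7.4 with MgCl2, BSA and DTT.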

LRRK2, sequence (Q5S007 970-2527 limits assumed): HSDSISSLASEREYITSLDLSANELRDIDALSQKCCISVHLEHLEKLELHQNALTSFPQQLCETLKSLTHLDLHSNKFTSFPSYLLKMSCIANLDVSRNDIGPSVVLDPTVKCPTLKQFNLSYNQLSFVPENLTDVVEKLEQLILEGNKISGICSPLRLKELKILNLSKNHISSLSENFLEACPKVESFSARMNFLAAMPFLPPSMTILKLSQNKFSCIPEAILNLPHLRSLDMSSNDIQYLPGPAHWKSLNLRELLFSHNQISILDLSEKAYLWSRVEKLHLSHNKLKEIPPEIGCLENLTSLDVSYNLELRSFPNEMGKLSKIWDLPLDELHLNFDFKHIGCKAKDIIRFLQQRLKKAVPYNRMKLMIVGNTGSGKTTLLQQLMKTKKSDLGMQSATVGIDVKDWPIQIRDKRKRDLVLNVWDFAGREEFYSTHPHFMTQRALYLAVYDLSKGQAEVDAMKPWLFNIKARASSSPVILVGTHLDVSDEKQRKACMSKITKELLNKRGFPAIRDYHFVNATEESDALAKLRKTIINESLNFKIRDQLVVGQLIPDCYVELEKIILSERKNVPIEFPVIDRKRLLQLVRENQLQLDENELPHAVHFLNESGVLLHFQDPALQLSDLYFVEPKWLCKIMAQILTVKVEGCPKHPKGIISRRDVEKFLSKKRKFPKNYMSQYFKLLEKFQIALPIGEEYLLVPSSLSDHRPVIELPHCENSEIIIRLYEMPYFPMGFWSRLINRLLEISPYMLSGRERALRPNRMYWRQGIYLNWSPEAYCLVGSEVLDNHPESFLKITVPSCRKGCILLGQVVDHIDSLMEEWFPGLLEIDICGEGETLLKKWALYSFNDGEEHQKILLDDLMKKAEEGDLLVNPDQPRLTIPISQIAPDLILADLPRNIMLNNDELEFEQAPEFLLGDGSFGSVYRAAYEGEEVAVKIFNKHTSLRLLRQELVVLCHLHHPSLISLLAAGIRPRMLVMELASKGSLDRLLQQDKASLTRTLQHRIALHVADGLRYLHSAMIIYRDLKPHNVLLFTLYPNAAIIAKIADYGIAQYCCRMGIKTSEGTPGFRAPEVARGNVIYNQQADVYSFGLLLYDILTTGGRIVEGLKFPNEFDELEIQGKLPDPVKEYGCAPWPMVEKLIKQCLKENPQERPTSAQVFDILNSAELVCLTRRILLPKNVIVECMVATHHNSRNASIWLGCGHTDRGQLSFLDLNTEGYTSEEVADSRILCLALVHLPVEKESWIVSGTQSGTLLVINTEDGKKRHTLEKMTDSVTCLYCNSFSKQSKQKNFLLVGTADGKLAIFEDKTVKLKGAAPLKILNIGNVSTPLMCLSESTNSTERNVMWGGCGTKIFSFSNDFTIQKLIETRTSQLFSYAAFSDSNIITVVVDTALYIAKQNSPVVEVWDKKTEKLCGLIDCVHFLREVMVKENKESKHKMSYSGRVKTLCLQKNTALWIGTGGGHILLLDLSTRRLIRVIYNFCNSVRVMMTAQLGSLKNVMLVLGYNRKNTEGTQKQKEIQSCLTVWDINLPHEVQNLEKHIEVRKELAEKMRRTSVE
T1 sequence (P49759 129-484 limits assumed): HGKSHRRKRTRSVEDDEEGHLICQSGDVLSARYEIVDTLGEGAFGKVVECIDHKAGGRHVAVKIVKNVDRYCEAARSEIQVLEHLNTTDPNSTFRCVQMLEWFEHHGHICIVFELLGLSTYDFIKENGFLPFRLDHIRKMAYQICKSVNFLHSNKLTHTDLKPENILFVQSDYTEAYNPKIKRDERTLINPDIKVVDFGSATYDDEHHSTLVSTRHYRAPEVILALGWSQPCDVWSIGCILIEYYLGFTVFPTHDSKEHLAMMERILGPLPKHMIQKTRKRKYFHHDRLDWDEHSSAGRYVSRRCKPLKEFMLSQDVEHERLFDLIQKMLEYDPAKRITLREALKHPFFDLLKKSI
LRRK2 (G2019S), sequence (Q5S007 970-2527 G2019S limits assumed): as the sequence (Q5S007 970-2527 limits assumed) above, with G1050S counted along it

Row | IC50 [1] | IC50 [2] | GI50 [3] | IC50 [5] | GI50 [6] | IC50 [7] | Compound | inhibition at 0.25 µM ([4]; 0.25 uM) | inhibition at 0.5 µM ([4]; 0.5 uM) | inhibition at 1 µM ([4]; 1 uM)
1 | < 100 nM | < 100 nM | 301 to 1000 nM | 101 to 300 nM |  |  | COc1cc(P2(=O)CCN(C3COC3)CC2)ccc1Nc1cc(C2CC2)c2c(C(F)(F)F)c[nH]c2n1 [Example 47, 4-(4-((4-cyclopropyl-3-(trifluoromethyl)-1H-pyrrolo[2,3-b]pyridin-6-yl)amino)-3-methoxyphenyl)-1-(oxetan-3-yl)-1,4-azaphosphinane 4-oxide] | 3.7% | 15% | 22.4%
2 | < 100 nM | < 100 nM | < 50 nM | < 100 nM | 51 to 100 nM | < 100 nM | COCCNc1cc(Nc2ccc(S(=O)(=O)N3CCC(N4CCOCC4)CC3)cc2OC)nc2[nH]cc(C#N)c12 [Example 140, 6-((2-methoxy-4-((4-morpholinopiperidin-1-yl)sulfonyl)phenyl)amino)-4-((2-methoxyethyl)amino)-1H-pyrrolo[2,3-b]pyridine-3-carbonitrile] |  |  | 
